Structures can show the parent of a compound that is named as a salt. Where two headings read alike, the source gives them in different places.
Experiments:
[1] = cited from earlier work
[2] = cited from earlier work; remark: listed apart in the source
[3] = NAC depletion under and without ultraviolet irradiation, HPLC with fluorescence detection (284 nm excitation, 333 nm fluorescence); conditions: single compound
[4] = NAL depletion under and without ultraviolet irradiation, HPLC with fluorescence detection (284 nm excitation, 333 nm fluorescence); conditions: single compound
[5] = Average score of NAC and NAL depletion and phototoxicity or photoallergy determination, fluorescence detection; conditions: under light irradiation, single compound
[6] = NAL depletion under and without ultraviolet irradiation, HPLC with UV detection (281 nm); conditions: for NAL Depletion (%) without light irradiation: 25° C. 24 hours light-shielded; for NAL Depletion (%) without light irradiation / NAL Depletion (%) under light irradiation: test substance solution 1 mmol/L; for NAL Depletion (%) under light irradiation: 2,000 μW/cm^2 for 1 hour then 25° C. 23 hours
[7] = NAC depletion under and without ultraviolet irradiation, HPLC with UV detection (281 nm); conditions: for NAC Depletion (%) without light irradiation: 25° C. 24 hours light-shielded; for NAC Depletion (%) without light irradiation / NAC Depletion (%) under light irradiation: test substance solution 1 mmol/L; for NAC Depletion (%) under light irradiation: 2,000 μW/cm^2 for 1 hour then 25° C. 23 hours

COc1ccc2ccc(=O)oc2c1 [7-Methoxy coumarin]
In vivo photoallergy ([1]; literature classification): Positive

CN(C)CCCN1c2ccccc2Sc2ccc(Cl)cc21 [No. 1, Chlorpromazine HCl]
In vivo photoallergy ([1]; literature classification): Positive | In vivo phototoxicity ([2]; literature classification): Positive

Cc1ccc2oc(=O)ccc2c1 [No. 2, 6-Methylcoumarin]
In vivo photoallergy ([1]; literature classification): Positive | In vivo phototoxicity ([2]; literature classification): Positive

O=C(c1ccccc1)c1ccccc1 [No. 4, Benzophenone]
In vivo photoallergy ([1]; in vivo): Positive

Oc1c(Cl)cc(Cl)cc1Sc1cc(Cl)cc(Cl)c1O [No. 5, Bithionol]
In vivo photoallergy ([1]; literature classification): Positive | In vivo phototoxicity ([2]; literature classification): Positive

CCn1cc(C(=O)O)c(=O)c2cc(F)c(N3CCNCC3)nc21 [No. 6, Enoxacin]
In vivo photoallergy ([1]; literature classification): Positive | In vivo phototoxicity ([2]; literature classification): Positive

CN1C(C(=O)Nc2ccccn2)=C(O)c2ccccc2S1(=O)=O [No. 8, Piroxicam]
In vivo photoallergy ([1]; literature classification): Positive | In vivo phototoxicity ([2]; literature classification): Positive

O=C(Nc1ccc(Br)cc1)c1cc(Br)cc(Br)c1O [No. 10, Tribromsalan]
In vivo photoallergy ([1]; in vivo): Positive | In vivo phototoxicity ([2]; in vivo): Positive

Nc1ccc(N)cc1 [No. 11, p-Phenylenediamine]
In vivo photoallergy ([1]; literature classification): Positive

O=C([O-])Cc1ccccc1Nc1c(Cl)cccc1Cl.[Na+] [No. 13, Diclofenac Na, reference compound]
In vivo photoallergy ([1]; literature classification): Positive | NAC Depletion (%) ([3]; under light irradiation): 100.0% | NAL Depletion (%) ([4]; under light irradiation): 0.0%

CC(CN1c2ccccc2Sc2ccccc21)N(C)C (stereo not shown) [No. 14, Promethazine HCl]
In vivo photoallergy ([1]; literature classification): Positive | In vivo phototoxicity ([2]; literature classification): Positive

C=C[C@H]1CN2CC[C@H]1C[C@H]2[C@H](O)c1ccnc2ccc(OC)cc12.Cl.O.O [No. 15, Quinine HCl (2H2O), reference compound]
NAC Depletion (%) ([3]; under light irradiation): 99.8% | NAL Depletion (%) ([4]; under light irradiation): 0.7%

COc1c(C(C)(C)C)cc([N+](=O)[O-])c(C)c1[N+](=O)[O-] [No. 17, Musk ambrette]
In vivo photoallergy ([1]; literature classification): Positive | In vivo phototoxicity ([2]; literature classification): Negative

O=C(Nc1ccc(Cl)cc1)Nc1ccc(Cl)c(Cl)c1 [No. 20, Triclocarban]
In vivo photoallergy ([1]; literature classification): Positive | In vivo phototoxicity ([2]; literature classification): Negative

Oc1ccc(Cl)cc1Sc1cc(Cl)ccc1O [No. 22, Fenticlor]
In vivo photoallergy ([1]; literature classification): Positive

NS(=O)(=O)c1cc2c(cc1Cl)NCNS2(=O)=O [No. 24, Hydrochlorothiazide]
In vivo photoallergy ([1]; literature classification): Positive

NNC(=O)c1ccncc1 [No. 25, Isoniazid]
In vivo photoallergy ([1]; literature classification): Positive

[Na+].[O-]n1ccccc1=S [No. 26, Omadine (Na salt)]
In vivo photoallergy ([1]; in vivo): Positive

Nc1ccc(S(N)(=O)=O)cc1 [No. 27, Sulfanilamide]
In vivo photoallergy ([1]; literature classification): Positive

CCOc1ccc2c(C)cc(=O)oc2c1 [No. 29, 4-Methyl-7-ethoxycoumarin]
In vivo photoallergy ([1]; literature classification): Positive

COc1c2ccoc2cc2oc(=O)ccc12 [No. 31, 5-Methoxypsoralen]
In vivo photoallergy ([1]; literature classification): Negative | In vivo phototoxicity ([2]; literature classification): Positive

CNc1ccccc1C(=O)OC [No. 32, Methyl-N-methylanthranilate]
In vivo photoallergy ([1]; literature classification): Negative | In vivo phototoxicity ([2]; literature classification): Positive

CC(=O)c1c(C)c([N+](=O)[O-])c(C(C)(C)C)c([N+](=O)[O-])c1C [No. 33, Musk ketone]
In vivo photoallergy ([1]; literature classification): Negative | In vivo phototoxicity ([2]; literature classification): Positive

c1ccc2nc3ccccc3cc2c1 [No. 34, Acridine]
In vivo photoallergy ([1]; literature classification): Negative | In vivo phototoxicity ([2]; literature classification): Positive

c1ccc2cc3ccccc3cc2c1 [No. 35, Anthracene]
In vivo photoallergy ([1]; literature classification): Negative | In vivo phototoxicity ([2]; literature classification): Positive

CN(C)[C@@H]1C(=O)C(C(N)=O)=C(O)[C@@]2(O)C(=O)C3=C(O)c4c(O)cccc4[C@@](C)(O)[C@H]3C[C@@H]12 [No. 36, Tetracycline, reference compound]
Average score (%) [5]: 64.3% | In vivo photoallergy ([1]; literature classification): Negative | NAC Depletion (%) ([3]; under light irradiation): 100.0% | NAL Depletion (%) ([4]; under light irradiation): 28.6%

CC(C)OC(=O)C(C)(C)Oc1ccc(C(=O)c2ccc(Cl)cc2)cc1 [No. 38, Fenofibrate]
In vivo phototoxicity ([2]; literature classification): Positive

Cc1ccc(C=C2C(=O)C3(C)CCC2C3(C)C)cc1 (stereo not shown) [No. 39, 4′-Methylbenzylidene camphor]
Average score (%) [5]: 2.0% | In vivo photoallergy ([1]; in vivo): Negative | In vivo phototoxicity ([2]; in vivo): Negative

CC(=O)Oc1ccccc1C(=O)O [No. 40, Aspirin]
In vivo photoallergy ([1]; literature classification): Negative | In vivo phototoxicity ([2]; literature classification): Negative

CCOC(=O)c1ccc(N)cc1 [No. 41, Benzocaine]
In vivo photoallergy ([1]; literature classification): Negative | In vivo phototoxicity ([2]; literature classification): Negative

COC(=O)c1ccccc1O [No. 43, Methyl salicylate]
In vivo photoallergy ([1]; literature classification): Negative | In vivo phototoxicity ([2]; literature classification): Negative

O=C1NC(=O)C(c2ccccc2)(c2ccccc2)N1 [No. 45, Phenytoin]
In vivo photoallergy ([1]; literature classification): Negative | In vivo photoallergy ([1]; reported in References 1 and 2): Negative | In vivo phototoxicity ([2]; literature classification): Negative | In vivo phototoxicity ([2]; reported in References 1 to 3): Negative

CC(C)O [No. 47, 2-Propanol]
Average score (%) [5]: 0.2% | In vivo photoallergy ([1]; in vivo): Negative | In vivo phototoxicity ([2]; in vivo): Negative

CCCCCCCCCCCCCCCCO [No. 49, Cetyl alcohol]
In vivo photoallergy ([1]; literature classification): Negative | In vivo phototoxicity ([2]; literature classification): Negative

OCC(O)CO [No. 51, Glycerine]
In vivo phototoxicity ([2]; literature classification): Negative

CCCCCCCCCCCCCC(=O)OC(C)C [No. 52, Isopropyl myristate]
In vivo photoallergy ([1]; literature classification): Negative | In vivo phototoxicity ([2]; literature classification): Negative

CCCCCCCCCCCC(=O)O [No. 53, Lauric acid]
In vivo photoallergy ([1]; literature classification): Negative | In vivo phototoxicity ([2]; literature classification): Negative

CCCCCCCCCCCC(=O)[O-].[Na+] [No. 55, Sodium laurate]
In vivo photoallergy ([1]; literature classification): Negative

COc1cc(O)c(C(=O)c2ccccc2)cc1S(=O)(=O)O [No. 57, Sulisobenzone]
In vivo photoallergy ([1]; literature classification): Negative | In vivo phototoxicity ([2]; literature classification): Negative

CC(O)C(=O)O (stereo not shown) [No. 59, Lactic acid]
In vivo photoallergy ([1]; literature classification): Negative

Cc1ncc(CO)c(CO)c1O.Cl [compound 9, Pyridoxine HCl]
In vivo photoallergy ([1]; in vivo): Positive | In vivo phototoxicity ([2]; in vivo): Positive

Nc1ccc(N)cc1 [compound 11, p-Phenylenediamine]
In vivo photoallergy ([1]; reported in References 1 and 2): Positive | In vivo phototoxicity ([2]; in vivo): Positive

O=C([O-])Cc1ccccc1Nc1c(Cl)cccc1Cl.[Na+] [compound 13]
In vivo photoallergy ([1]; reported in References 1 and 2): Positive | Difference in depletion (under light irradiation - without light irradiation) NAC (%) [3]: 100.0% | NAC Depletion (%) ([3]; without light irradiation): 0.0% | Difference in depletion (under light irradiation - without light irradiation) NAL (%) [4]: 0.0% | NAL Depletion (%) ([4]; without light irradiation): 0.0% | NAL Depletion (%) without light irradiation [6]: 0.0% | NAL Depletion (%) under light irradiation [6]: −4.1% | Difference in depletion (under light irradiation - without light irradiation) NAC (%) [7]: 99.4% | NAC Depletion (%) without light irradiation [7]: 0.6% | NAC Depletion (%) under light irradiation [7]: 100.0%

C=CC1CN2CCC1CC2C(O)c1ccnc2ccc(OC)cc12.Cl.O.O (stereo not shown) [compound 15]
Difference in depletion (under light irradiation - without light irradiation) NAC (%) [3]: 98.8% | NAC Depletion (%) ([3]; without light irradiation): 1.0% | Difference in depletion (under light irradiation - without light irradiation) NAL (%) [4]: 0.7% | NAL Depletion (%) ([4]; without light irradiation): 0.0% | Difference in depletion (under light irradiation - without light irradiation) NAL (%) [6]: 4.1% | NAL Depletion (%) without light irradiation [6]: 0.0% | NAL Depletion (%) under light irradiation [6]: 4.1% | Difference in depletion (under light irradiation - without light irradiation) NAC (%) [7]: 98.9% | NAC Depletion (%) without light irradiation [7]: 1.1% | NAC Depletion (%) under light irradiation [7]: 100.0%

COc1ccc2ccc(=O)oc2c1 [compound 30, 7-Methoxycoumarin]
In vivo photoallergy ([1]; reported in References 1 and 2): Positive

CNc1ccccc1C(=O)OC [compound 32, Methyl-N-methylanthranilate]
In vivo photoallergy ([1]; reported in References 1 and 2): Negative | In vivo phototoxicity ([2]; reported in References 1 to 3): Positive

c1ccc2nc3ccccc3cc2c1 [compound 34, Acridine]
In vivo photoallergy ([1]; reported in References 1 and 2): Negative | In vivo phototoxicity ([2]; reported in References 1 to 3): Positive

c1ccc2cc3ccccc3cc2c1 [compound 35, Anthracene]
In vivo photoallergy ([1]; reported in References 1 and 2): Negative | In vivo phototoxicity ([2]; reported in References 1 to 3): Positive

CN(C)C1C(O)=C(C(N)=O)C(=O)C2(O)C(O)=C3C(=O)c4c(O)cccc4C(C)(O)C3CC12 (stereo not shown) [compound 36]
In vivo photoallergy ([1]; reported in References 1 and 2): Negative | Difference in depletion (under light irradiation - without light irradiation) NAC (%) [3]: 43.4% | NAC Depletion (%) ([3]; without light irradiation): 56.6% | Difference in depletion (under light irradiation - without light irradiation) NAL (%) [4]: 25.6% | NAL Depletion (%) ([4]; without light irradiation): 3.0% | Difference in depletion (under light irradiation - without light irradiation) NAL (%) [6]: 22.5% | NAL Depletion (%) without light irradiation [6]: 5.1% | NAL Depletion (%) under light irradiation [6]: 27.6% | NAC Depletion (%) without light irradiation [7]: −59.4% | NAC Depletion (%) under light irradiation [7]: 44.6%

COC(=O)c1ccccc1O [compound 43, Methyl salicylate]
In vivo photoallergy ([1]; reported in References 1 and 2): Negative | In vivo phototoxicity ([2]; reported in References 1 to 3): Negative

CCCCCCCCCCCCCC(=O)OC(C)C [compound 52, Isopropyl myristate]
In vivo photoallergy ([1]; reported in References 1 and 2): Negative | In vivo phototoxicity ([2]; reported in References 1 to 3): Negative

CCCCCCCCCCCC(=O)O [compound 53, Lauric acid]
In vivo photoallergy ([1]; reported in References 1 and 2): Negative | In vivo phototoxicity ([2]; reported in References 1 to 3): Negative

CCCCCCCCCCCC(=O)[O-].[Na+] [compound 55, Sodium laurate]
In vivo photoallergy ([1]; reported in References 1 and 2): Negative | In vivo phototoxicity ([2]; in vivo): Negative

CCCCCCCCCCCCOS(=O)(=O)[O-].[Na+] [compound 56, Sodium lauryl sulfate]
In vivo phototoxicity ([2]; in vivo): Negative

— US20220364989A1, “METHOD FOR MEASURING PHOTOTOXICITY OR PHOTOALLERGY AND REAGENT FOR USE THEREIN” (FUJIFILM Corporation, priority 2018, published 2022)
